The text below walks through data of patent US8907128B2, “Boron compound with amino acid skeleton containing cyclo ring-type ring” (Stella Pharma Corporation, priority 2010, dated 2014).

The subject of the experiment is rat glima cells (C6). The experiment is described as follows: Cytotoxicity test (WST-8). Format: cell-based. Particulars: 48 hours culture with boron agent, WST-8 absorbance at 450 nm. How it is done:
Using a 96-well microplate, rat glima cells (C6) were seeded at a density of 1.5×10^4 cells/ml per well and then cultured at room temperature (37° C., 5% CO2) for 16 hours. The culture fluid was taken out by suction and the culture fluids containing boron agents at various concentrations obtained in the Examples were added to respective wells in an amount of […] each. After culturing at room temperature (37° C., 5% CO2) for 48 hours, the culture fluid was taken out by suction, […] portions of WST-8 solution were added respectively, and culture was further carried out at room temperature (37° C., 5% CO2) for 4 hours. Using a microplate reader, the absorbance at a wavelength of 450 nm (reference wavelength: 655 nm) was measured and the absorbance of wells not containing cells was employed as background control, to determine each IC50 value.

In the case of “trans-1-amino-3-(dodecaboranylthiomethyl)cyclobutane-carboxylic acid trisodium salt [trans-ACBC-BSH]”, half-maximal inhibition (IC50) was put at 2100 µM. With `N[C@@H](Cc1ccc(B(O)O)cc1)C(=O)O` [L-BPA, 4-borono-L-phenylalanine, reference compound], for the setting “Rattus norvegicus”, the half-maximal inhibitory concentration (IC50) is > 2000 µM.

“cis-1-amino-3-(dodecaboranylthiomethyl)cyclobutanecarboxylic acid trisodium salt [cis-ACBC-BSH]” gave an IC50 of 2500 µM.

With “1-amino-4-[(undecahydrododecaboranyl-thio)methyl]cyclohexanone-1-carboxylic acid disodium salt [cis-ACHC-BSH]”, the IC50 was < 300 µM.
